Assay results from PubChem BioAssay AID1745844 (Carcinogenic Potency Database (CPDB), 2022).
Active and inactive are the calls of the source. No rule for the calls is given here.

Test system: rodent lifetime carcinogenesis bioassay, tumor incidence TD50
Assay: chronic cancer bioassays in animals – CPDB, compiled studies (AID 1745844)

Nc1cc(S(=O)(=O)[O-])cc2cc(S(=O)(=O)[O-])c(N=Nc3ccc(-c4ccc(N=Nc5c(S(=O)(=O)[O-])cc6cc(S(=O)(=O)[O-])cc(N)c6c5O)c(O)c4)cc3O)c(O)c12.[Cu].[Cu].[Na+].[Na+].[Na+].[Na+]
TD50 (mouse, strain B6C3F1, females, in feed, site: any site (literature study), lesion: several types, types named in the paper, dosed 103 weeks, study length 106 weeks): 1530 mg/kg/day | TD50 (mouse, strain B6C3F1, females, in feed, site: liver, lesion: hepatoblastoma + hepatocellular carcinoma, dosed 103 weeks, study length 106 weeks): 4000 mg/kg/day | TD50 (mouse, strain B6C3F1, females, in feed, site: liver, lesion: hepatocellular adenoma + hepatoblastoma + hepatocellular carcinoma, dosed 103 weeks, study length 106 weeks): 711 mg/kg/day | TD50 (mouse, strain B6C3F1, females, in feed, site: liver, lesion: hepatocellular adenoma + hepatocellular carcinoma, dosed 103 weeks, study length 106 weeks): 711 mg/kg/day | TD50 (mouse, strain B6C3F1, females, in feed, site: liver, lesion: hepatocellular adenoma, dosed 103 weeks, study length 106 weeks): 774 mg/kg/day | TD50 (mouse, strain B6C3F1, females, in feed, site: liver, lesion: hepatocellular carcinoma, dosed 103 weeks, study length 106 weeks): 4570 mg/kg/day | TD50 (mouse, strain B6C3F1, males, in feed, site: any site (literature study), lesion: several types, types named in the paper, dosed 103 weeks, study length 105 weeks): 1910 mg/kg/day | TD50 (mouse, strain B6C3F1, males, in feed, site: jejunum, lesion: carcinoma, dosed 103 weeks, study length 105 weeks): 20300 mg/kg/day | carcinogen call (mouse, strain B6C3F1, males, in feed, site: kidney, lesion: tubule adenoma + tubule carcinoma, dosed 103 weeks, study length 105 weeks): e | TD50 (mouse, strain B6C3F1, males, in feed, site: kidney, lesion: tubule adenoma, dosed 103 weeks, study length 105 weeks): 195000 mg/kg/day | carcinogen call (mouse, strain B6C3F1, males, in feed, site: kidney, lesion: tubule carcinoma, dosed 103 weeks, study length 105 weeks): e | TD50 (mouse, strain B6C3F1, males, in feed, site: liver, lesion: hepatocellular adenoma + hepatoblastoma + hepatocellular carcinoma, dosed 103 weeks, study length 105 weeks): 1080 mg/kg/day | TD50 (mouse, strain B6C3F1, males, in feed, site: liver, lesion: hepatocellular adenoma + hepatocellular carcinoma, dosed 103 weeks, study length 105 weeks): 1080 mg/kg/day | TD50 (mouse, strain B6C3F1, males, in feed, site: liver, lesion: hepatocellular adenoma, dosed 103 weeks, study length 105 weeks): 1210 mg/kg/day | TD50 (mouse, strain B6C3F1, males, in feed, site: liver, lesion: hepatocellular carcinoma, dosed 103 weeks, study length 105 weeks): 2990 mg/kg/day | TD50 (rat, strain Fischer 344, females, in feed, site: any site (literature study), lesion: several types, types named in the paper, dosed 103 weeks, study length 104 weeks): 653 mg/kg/day | TD50 (rat, strain Fischer 344, females, in feed, site: uterus, lesion: endometrial stromal polyp, dosed 103 weeks, study length 104 weeks): 83.5 mg/kg/day (inactive) | TD50 (rat, strain Fischer 344, males, in feed, site: any site (literature study), lesion: several types, types named in the paper, dosed 103 weeks, study length 104 weeks): 921 mg/kg/day | TD50 (rat, strain Fischer 344, males, in feed, site: forestomach, lesion: squamous-cell carcinoma + squamous-cell papilloma, dosed 103 weeks, study length 104 weeks): 2350 mg/kg/day | carcinogen call (rat, strain Fischer 344, males, in feed, site: forestomach, lesion: squamous-cell carcinoma, dosed 103 weeks, study length 104 weeks): e | TD50 (rat, strain Fischer 344, males, in feed, site: forestomach, lesion: squamous-cell papilloma, dosed 103 weeks, study length 104 weeks): 3140 mg/kg/day | TD50 (rat, strain Fischer 344, males, in feed, site: liver, lesion: hepatocellular adenoma + hepatoblastoma + hepatocellular carcinoma, dosed 103 weeks, study length 104 weeks): 5050 mg/kg/day | TD50 (rat, strain Fischer 344, males, in feed, site: palate, lesion: basosquamous tumor, benign + squamous-cell carcinoma + squamous-cell papilloma, dosed 103 weeks, study length 104 weeks): 1380 mg/kg/day | TD50 (rat, strain Fischer 344, males, in feed, site: palate, lesion: basosquamous tumor, benign, dosed 103 weeks, study length 104 weeks): 11500 mg/kg/day | TD50 (rat, strain Fischer 344, males, in feed, site: palate, lesion: squamous-cell carcinoma + squamous-cell papilloma, dosed 103 weeks, study length 104 weeks): 1570 mg/kg/day | TD50 (rat, strain Fischer 344, males, in feed, site: palate, lesion: squamous-cell carcinoma, dosed 103 weeks, study length 104 weeks): 9510 mg/kg/day | TD50 (rat, strain Fischer 344, males, in feed, site: palate, lesion: squamous-cell papilloma, dosed 103 weeks, study length 104 weeks): 1920 mg/kg/day

C/C1=C\C=C(\C(C)C)[C@@H](O)C/C(C)=C/CC/C(C)=C/CC1
carcinogen call (mouse, strain C3H/HeN, males, in feed, site: liver, lesion: hepatoma, dosed 65 weeks, study length 65 weeks): negative (inactive)

CC(Cl)C=O (centres undefined)
TD50 (mouse, strain Ha/ICR, females, by gavage, site: forestomach, lesion: one or several types, types not named, dosed 89 weeks, study length 89 weeks): 12.9 mg/kg/day | TD50 (mouse, strain Ha/ICR, males, by gavage, site: forestomach, lesion: one or several types, types not named, dosed 89 weeks, study length 89 weeks): 22.7 mg/kg/day

CC1=C(C)C(=O)C(C(CCCCCC(=O)O)c2ccccc2)=C(C)C1=O (centres undefined)
carcinogen call (rat, strain Fischer 344/Jcl, females, in feed, site: liver, lesion: one or several types, types not named, dosed 52 weeks, study length 52 weeks): negative (inactive) | carcinogen call (rat, strain Fischer 344/Jcl, males, in feed, site: liver, lesion: one or several types, types not named, dosed 52 weeks, study length 52 weeks): negative (inactive)

NCC(=O)O
TD50 (rat, strain F344/DuCrj, females, in drinking water, site: any site (literature study), lesion: several types, types named in the paper, dosed 108 weeks, study length 108 weeks): 7550 mg/kg/day | TD50 (rat, strain F344/DuCrj, females, in drinking water, site: kidney/pelvis, lesion: transitional-cell papilloma, dosed 108 weeks, study length 108 weeks): 25700 mg/kg/day | TD50 (rat, strain F344/DuCrj, females, in drinking water, site: liver, lesion: neoplastic nodule, dosed 108 weeks, study length 108 weeks): 157000 mg/kg/day | TD50 (rat, strain F344/DuCrj, females, in drinking water, site: uterus, lesion: endometrial stromal polyp, dosed 108 weeks, study length 108 weeks): 3100 mg/kg/day

O=C1OC(CN2CCOCC2)CN1/N=C/c1ccc([N+](=O)[O-])o1 (centres undefined)
TD50 (rat, strain Sprague-Dawley, females, in feed, site: all sites, lesion: lymphoblastic lymphoma, dosed 46 weeks, study length 66 weeks): 39 mg/kg/day | TD50 (rat, strain Sprague-Dawley, females, in feed, site: any site (literature study), lesion: several types, types named in the paper, dosed 46 weeks, study length 66 weeks): 2.81 mg/kg/day | TD50 (rat, strain Sprague-Dawley, females, in feed, site: kidney/pelvis, lesion: transitional-cell carcinoma, dosed 46 weeks, study length 66 weeks): 149 mg/kg/day | TD50 (rat, strain Sprague-Dawley, females, in feed, site: mammary gland, lesion: adenocarcinoma, dosed 46 weeks, study length 66 weeks): 6.33 mg/kg/day | TD50 (rat, strain Sprague-Dawley, females, in feed, site: mammary gland, lesion: several types, types named in the paper, dosed 46 weeks, study length 66 weeks): 2.81 mg/kg/day

CCC1C(=O)OCC1Cc1cncn1C (centres undefined)
TD50 (rat, strain Sprague-Dawley, females, i.p., site: any site (literature study), lesion: malignant tumor, dosed 104 weeks, study length 104 weeks): 98.4 mg/kg/day (inactive) | TD50 (rat, strain Sprague-Dawley, males, i.p., site: any site (literature study), lesion: malignant tumor, dosed 104 weeks, study length 104 weeks): 1750 mg/kg/day (inactive)

COc1cc(C=NNC(=O)c2ccncc2)ccc1O
TD50 (mouse, strain Not specified, both sexes, by gavage, site: any site (literature study), lesion: several types, types named in the paper, dosed 52 weeks, study length 52 weeks): 27.4 mg/kg/day | TD50 (mouse, strain Not specified, both sexes, by gavage, site: lung, lesion: adenocarcinoma, dosed 52 weeks, study length 52 weeks): 45 mg/kg/day | TD50 (mouse, strain Not specified, both sexes, by gavage, site: mammary gland, lesion: adenocarcinoma, dosed 52 weeks, study length 52 weeks): 86.6 mg/kg/day

CNC(=O)c1c(N(C)N=O)ncn1C
TD50 (rat, strain BD IX, both sexes, in drinking water, site: nasal cavity, olfactory epithelium, lesion: neuroepithelioma, dosed 73 weeks, study length 79 weeks): 1.03 mg/kg/day | TD50 (rat, strain BD IX, both sexes, in drinking water, site: nasal cavity, lesion: several types, types named in the paper, dosed 73 weeks, study length 79 weeks): 1 mg/kg/day | TD50 (rat, strain BD IX, both sexes, in drinking water, site: nasal cavity, lesion: squamous-cell carcinoma, dosed 73 weeks, study length 79 weeks): 5.56 mg/kg/day
